Assay [1] deals with HCoV-OC43 M^pro. To be noted: read-out: IC50 HCoV-OC43, cited from earlier work.
Assay [2] has as its system HCoV-HKU1 M^pro. To be noted: read-out: IC50 HCoV-HKU1; cited from earlier work.
Assay [3] concerns HCoV-NL63 M^pro. To be noted: read-out: IC50 HCoV-NL63, cited from earlier work.
Assay [4] has as its system M^pro of four alpha-CoVs. To be noted: read-out: IC50 values against all four alpha-CoVs.
The subject of assay [5] is M^pro of ten high-risk CoVs.

Each structure is given as a SMILES string. Like-named read-outs stand apart in the source and are kept apart here.

As usually defined, the IC50 is the concentration that inhibits the measured activity by half. Turning to `CC(C)(C)[C@H](NC(=O)C(F)(F)F)C(=O)N1C[C@H]2[C@@H]([C@H]1C(=O)N[C@H](C#N)C[C@@H]1CCNC1=O)C2(C)C` [PF-07321332, Nirmatrelvir], the IC50 in assay [1] is […]; in assay [2], […]; in assay [3] it was […].

On to `Cc1cncc(-n2c(=O)[nH]/c(=N\c3cc4cn(C)nc4cc3Cl)n(Cc3cc(C#N)ccc3Sc3ccc(Cl)s3)c2=O)c1` [Compound 24, (E)-3-((6-((6-Chloro-2-methyl-2H-indazol-5-yl)imino)-3-(5-methylpyridin-3-yl)-2,4-dioxo-1,3,5-triazinan-1-yl)methyl)-4-((5-chlorothiophen-2-yl)thio)benzonitrile], for which the IC50 in assay [4] is below 300 nM.

Regarding `Cn1cc2cc(/N=c3\[nH]c(=O)n(Cc4ccc[nH]c4=O)c(=O)n3Cc3cc(Cl)c(F)cc3Oc3ccc(C#N)s3)c(Cl)cc2n1` [Compound 25, (E)-5-(4-chloro-2-((6-((6-chloro-2-methyl-2H-indazol-5-yl)imino)-2,4-dioxo-3-((2-oxo-1,2-dihydropyridin-3-yl)methyl)-1,3,5-triazinan-1-yl)methyl)-5-fluoro-phenoxy)thiophene-2-carbonitrile], the IC50 in assay [4] is below 600 nM; in assay [5] (read-out: IC50 against ten high-risk CoVs), below 600 nM; in assay [5] (read-out: IC50 values for six of the ten CoVs) it was below 100 nM.

As for `Cn1cnc(Cn2c(=O)[nH]/c(=N\c3cc4cn(C)nc4cc3Cl)n(Cc3cc(Cl)c(F)cc3Oc3ncc(C(F)(F)F)s3)c2=O)n1` [Compound 14, (E)-6-((6-chloro-2-methyl-2H-indazol-5-yl)imino)-1-(5-chloro-4-fluoro-2-((5-(trifluoromethyl)thiazol-2-yl)oxy)benzyl)-3-((1-methyl-1H-1,2,4-triazol-3-yl)methyl)-1,3,5-triazinane-2,4-dione], the IC50 in assay [4] is below 300 nM.

In the case of `Cn1cnc(Cn2c(=O)[nH]/c(=N\c3cc4cn(C)nc4cc3Cl)n(Cc3cc(F)c(F)cc3F)c2=O)n1` [S-217622 (1)], the IC50 is […] in assay [1] (reported compound), […] in assay [2] and […] in assay [3] (reported compound).

The values above are taken from article PMC12096674 (Journal of Enzyme Inhibition and Medicinal Chemistry, 2025).
